Assay results: patent US20160151335A1, “METHODS OF MODULATING CFTR ACTIVITY” (PROTEOSTASIS THERAPEUTICS, INC., priority 2013, published 2016)

What follows are molecules tested against T1, ΔF508-CFTR (Homo sapiens, UniProt P13569, DEL508-508) (assay: Ussing chamber short-circuit current measurement, CFTRinh-172-inhibitable current). Details: compound at 10 uM alone, 24 h, primary hBE cells homozygous ΔF508; relative to VX-809 (1 uM).
T1 construct: Primary lung epithelial cells (hBEs) homozygous for the Cystic Fibrosis-causing ΔF508 mutation; endogenous in cells; host or cells: primary lung (bronchial) epithelial cells (hBE) homozygous for ΔF508, differentiated at an air-liquid interface
Type: cell-based
Description: Primary lung epithelial cells (hBEs) homozygous for the Cystic Fibrosis-causing ΔF508 mutation were differentiated for a minimum of 4 weeks in an air-liquid interface on SnapWell filter plates prior to the Ussing measurements. Cells were apically mucus-washed for 30 minutes prior to treatment with compounds. The basolateral media was removed and replaced with media containing the compound of interest diluted to its final concentration from DMSO stocks. Treated cells were incubated at 37° C. and 5% CO2 for 24 hours. At the end of the treatment period, the cells on filters were transferred to the Ussing chamber and equilibrated for 30 minutes. The short-circuit current was measured in voltage clamp-mode (Vhold=0 mV), and the entire assay was conducted at a temperature of 36° C.-36.5° C. Once the voltages stabilized, the chambers were clamped, and data was recorded by pulse readings every 5 seconds. Following baseline current stabilization, the following additions were applied and the changes in current and resistance of the cells monitored: • 1. Benzamil to the apical chamber to inhibit ENaC sodium channel. • 2. Forskolin to both chambers to activate ΔF508-CFTR by phosphorylation. • 3. Genistein to both chambers to potentiate ΔF508-CFTR channel opening. • 4. CFTRinh-172 to the apical chamber to inhibit ΔF508-CFTR Cl− conductance.
The inhibitable current (that current that is blocked by CFTRinh-172) was measured as the specific activity of the ΔF508-CFTR channel, and increases in response to compound in this activity over that observed in vehicle-treated samples were identified as the correction of ΔF508-CFTR function imparted by the compound tested. ++ indicates activity ≧25% of VX-809 (1 uM) with compound at 10 uM and VX-809 at 1 uM; ** indicates activity ≧200% of VX-809 (1 uM) with compound at 10 uM and VX-809 at 1 uM; ** indicates activity 100-200% of VX-809 (1 uM) with compound at 10 uM and VX-809 at 1 uM; The transepithelial resistance (TER) for these compounds are within 30% of DMSO controls.

T1 sequence (P13569 with tags, fused parts or gaps DEL508-508): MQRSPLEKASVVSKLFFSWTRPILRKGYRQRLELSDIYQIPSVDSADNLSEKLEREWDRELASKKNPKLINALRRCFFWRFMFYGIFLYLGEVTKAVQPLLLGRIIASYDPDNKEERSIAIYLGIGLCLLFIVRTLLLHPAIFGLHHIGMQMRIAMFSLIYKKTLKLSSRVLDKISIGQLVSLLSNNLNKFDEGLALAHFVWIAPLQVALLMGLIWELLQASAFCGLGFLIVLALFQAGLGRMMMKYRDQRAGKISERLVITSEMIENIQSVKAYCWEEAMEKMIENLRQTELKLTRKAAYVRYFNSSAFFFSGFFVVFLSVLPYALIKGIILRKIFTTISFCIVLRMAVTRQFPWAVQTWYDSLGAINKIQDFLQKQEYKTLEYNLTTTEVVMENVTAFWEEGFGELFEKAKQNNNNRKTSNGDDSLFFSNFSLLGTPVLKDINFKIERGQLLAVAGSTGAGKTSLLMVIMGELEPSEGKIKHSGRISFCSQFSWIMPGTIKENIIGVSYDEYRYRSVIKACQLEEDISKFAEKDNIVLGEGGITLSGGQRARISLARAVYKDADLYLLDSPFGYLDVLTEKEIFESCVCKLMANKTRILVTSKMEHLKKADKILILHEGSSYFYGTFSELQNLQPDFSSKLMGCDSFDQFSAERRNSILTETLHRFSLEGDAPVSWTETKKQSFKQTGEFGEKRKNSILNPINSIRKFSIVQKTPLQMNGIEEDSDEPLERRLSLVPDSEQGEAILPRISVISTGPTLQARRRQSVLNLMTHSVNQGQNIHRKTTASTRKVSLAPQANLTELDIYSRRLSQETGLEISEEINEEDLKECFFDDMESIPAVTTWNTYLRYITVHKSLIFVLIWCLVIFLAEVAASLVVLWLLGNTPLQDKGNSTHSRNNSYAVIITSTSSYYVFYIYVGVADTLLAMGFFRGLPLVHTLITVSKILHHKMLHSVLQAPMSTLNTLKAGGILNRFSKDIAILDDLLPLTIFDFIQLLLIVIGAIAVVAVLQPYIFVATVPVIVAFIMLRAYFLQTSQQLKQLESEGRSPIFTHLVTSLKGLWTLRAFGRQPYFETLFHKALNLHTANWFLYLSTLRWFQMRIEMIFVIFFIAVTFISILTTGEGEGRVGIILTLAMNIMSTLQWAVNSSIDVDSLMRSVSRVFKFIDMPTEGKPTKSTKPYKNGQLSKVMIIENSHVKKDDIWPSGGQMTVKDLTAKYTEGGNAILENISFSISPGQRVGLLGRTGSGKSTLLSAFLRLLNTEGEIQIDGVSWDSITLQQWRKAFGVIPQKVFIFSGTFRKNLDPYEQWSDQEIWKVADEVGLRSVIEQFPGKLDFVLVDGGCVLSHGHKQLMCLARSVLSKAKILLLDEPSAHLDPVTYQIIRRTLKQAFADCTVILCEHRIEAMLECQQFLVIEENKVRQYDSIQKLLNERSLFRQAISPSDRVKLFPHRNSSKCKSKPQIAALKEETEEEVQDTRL

SMILES	Solo % VX809 (Ussing activity)
O=C(NCCCn1ccnc1)c1cc(-c2ccccc2)on1 [Compound 16]	++ (++ indicates activity ≧25% of VX-809 (1 uM) with compound at 10 uM and VX-809 at 1 uM)
Cc1cn(CCNC(=O)c2cc(-c3ccccc3)on2)nn1 [Compound 9]	++ (++ indicates activity ≧25% of VX-809 (1 uM) with compound at 10 uM and VX-809 at 1 uM)
Cn1ccnc1SCCNC(=O)c1cc(-c2ccccc2)on1 [Compound 18]	++ (++ indicates activity ≧25% of VX-809 (1 uM) with compound at 10 uM and VX-809 at 1 uM)

Same assay, conditions: compound at 10 uM with VX-809 at 1 uM, 24 h, primary hBE cells homozygous ΔF508; relative to VX-809 (1 uM)

SMILES	Combination % VX809 (Ussing activity)
O=C(NCCCn1ccnc1)c1cc(-c2ccccc2)on1 [Compound 16]	** (** indicates activity ≧200% of VX-809 (1 uM) with compound at 10 uM and VX-809 at 1 uM)
Cn1ccnc1SCCNC(=O)c1cc(-c2ccccc2)on1 [Compound 18]	** (** indicates activity ≧200% of VX-809 (1 uM) with compound at 10 uM and VX-809 at 1 uM)

Each molecule was assayed against T1, ΔF508-CFTR (assay: hBE equivalent current (Ieq) assay, AUC of equivalent chloride current). Details: compound at 10 uM, 24 h, primary hBE cells homozygous ΔF508; AUC increase relative to VX-809 at 1 uM.
Type: cell-based
Description: Primary lung epithelial cells homozygous for the Cystic Fibrosis-causing ΔF508 mutation were differentiated for a minimum of 4 weeks in an air-liquid interface on Costar 24 well HTS filter plates prior to the equivalent current (Ieq) measurements. Cells were apically mucus-washed for 30 minutes 24 h prior to treatment with compounds. The basolateral media was removed and replaced with media containing the compound of interest diluted to its final concentration from DMSO stocks. Treated cells were incubated at 37° C. and 5% CO2 for 24 hours. At the end of the treatment period, the media was changed to the Ieq experimental solution for 30 minutes before the experiment and plates are maintained in a CO2-free incubator during this period. The plates containing the cells were then placed in pre-warmed heating blocks at 36° C.±0.5 for 15 minutes before measurements are taken. The transepithelial voltage (VT) and conductance (GT) were measured using a custom 24 channel current clamp (TECC-24) with 24 well electrode manifold. The Ieq assay measurements were made following additions with standardized time periods: • 1. The baseline VT and GT values were measured for approximately 20 minutes. • 2. Benzamil was added to block ENaC for 15 minutes. • 3. Forskolin plus VX-770 were added to maximally activate ΔF508-CFTR for 27 minutes. • 4. Bumetanide was added to inhibit the NaK2Cl cotransporter and shut-off secretion of chloride. The activity data captured was the area under the curve (AUC) for the traces of the equivalent chloride current. The AUC was collected from the time of the forskolin/VX-770 addition until the inhibition by bumetanide addition. Correction in response to compound treatment was scored as the increase in the AUC for compound-treated samples over that of vehicle-treated samples. (++ indicates activity ≧25% run at 10 uM of VX-809 at 1 uM, + indicates activity 10 to ≦25% run at 10 uM of VX-809 at 1 uM.

SMILES	Ieq hBE Activity
O=C(NCCCn1ccnc1)c1cc(-c2ccccc2)on1 [Compound 16]	++ (++ indicates activity ≧25% run at 10 uM of VX-809 at 1 uM)
Cn1ccnc1SCCNC(=O)c1cc(-c2ccccc2)on1 [Compound 18]	++ (++ indicates activity ≧25% run at 10 uM of VX-809 at 1 uM)
O=C(NCCn1nccn1)c1cc(-c2cccs2)on1 [Compound 228]	++ (++ indicates activity ≧25% run at 10 uM of VX-809 at 1 uM)
O=C(NCCN1CCOCC1)c1cc(-c2ccccc2)on1 [Compound 4]	++ (++ indicates activity ≧25% run at 10 uM of VX-809 at 1 uM)
O=C(NCCn1nccn1)c1cc(-c2ccccc2)on1 [Compound 115]	++ (++ indicates activity ≧25% run at 10 uM of VX-809 at 1 uM)
COCc1noc(CNC(=O)c2cc(-c3ccccc3)on2)n1 [Compound 35]	++ (++ indicates activity ≧25% run at 10 uM of VX-809 at 1 uM)
Cc1nc(CCCNC(=O)c2cc(-c3ccccc3)on2)sc1C [Compound 191]	++ (++ indicates activity ≧25% run at 10 uM of VX-809 at 1 uM)
O=C(Nc1cccnc1)c1cc(-c2ccccc2)on1 [Compound 345]	+ (+ indicates activity 10 to ≦25% run at 10 uM of VX-809 at 1 uM)
O=C(NCCCn1ccnc1)c1cc(-c2cccs2)on1 [Compound 237]	++ (++ indicates activity ≧25% run at 10 uM of VX-809 at 1 uM)
O=C(NCC1CCOC1)c1cc(-c2cccs2)on1 (stereo not shown) [Compound 226]	++ (++ indicates activity ≧25% run at 10 uM of VX-809 at 1 uM)
O=C(NCCc1ccccc1)c1cc(-c2ccccc2)on1 [Compound 95]	++ (++ indicates activity ≧25% run at 10 uM of VX-809 at 1 uM)
O=C(NCC1CCOC1)c1cc(-c2ccccc2)on1 (stereo not shown) [Compound 52]	++ (++ indicates activity ≧25% run at 10 uM of VX-809 at 1 uM)
O=C(NCCc1csc(-c2ncccn2)n1)c1cc(-c2ccccc2)on1 [Compound 110]	++ (++ indicates activity ≧25% run at 10 uM of VX-809 at 1 uM)
Cn1c(CCCNC(=O)c2cc(-c3ccccc3)on2)nc2ccccc21 [Compound 17]	+ (+ indicates activity 10 to ≦25% run at 10 uM of VX-809 at 1 uM)
O=C(NCCc1ccncc1)c1cc(-c2ccccc2)on1 [Compound 102]	++ (++ indicates activity ≧25% run at 10 uM of VX-809 at 1 uM)
O=C(NCCc1c[nH]c2ccccc12)c1cc(-c2ccccc2)on1 [Compound 120]	++ (++ indicates activity ≧25% run at 10 uM of VX-809 at 1 uM)
O=C(NCCCn1cccc1)c1cc(-c2ccccc2)on1 [Compound 186]	++ (++ indicates activity ≧25% run at 10 uM of VX-809 at 1 uM)
O=C(NCCCN1CCOCC1)c1cc(-c2ccccc2F)on1 [Compound 135]	+ (+ indicates activity 10 to ≦25% run at 10 uM of VX-809 at 1 uM)
O=C(NCC1CCCO1)c1cc(-c2ccccc2)on1 (stereo not shown) [Compound 1]	++ (++ indicates activity ≧25% run at 10 uM of VX-809 at 1 uM)
O=C(N[C@H]1CC[C@H](O)CC1)c1cc(-c2ccccc2)on1 [Compound 343]	+ (+ indicates activity 10 to ≦25% run at 10 uM of VX-809 at 1 uM)
Cc1nnsc1CNC(=O)c1cc(-c2ccccc2)on1 [Compound 344]	+ (+ indicates activity 10 to ≦25% run at 10 uM of VX-809 at 1 uM)
O=C(NCCCc1cccnc1)c1cc(-c2ccccc2)on1 [Compound 207]	++ (++ indicates activity ≧25% run at 10 uM of VX-809 at 1 uM)
O=C(NCCCn1cncn1)c1cc(-c2ccccc2)on1 [Compound 192]	++ (++ indicates activity ≧25% run at 10 uM of VX-809 at 1 uM)
O=C(NCCc1noc(C2CCCC2)n1)c1cc(-c2ccccc2)on1 [Compound 12]	++ (++ indicates activity ≧25% run at 10 uM of VX-809 at 1 uM)
O=C(NCCCn1ccnc1)c1cc(-c2ccc(F)cc2)on1 [Compound 15]	+ (+ indicates activity 10 to ≦25% run at 10 uM of VX-809 at 1 uM)
O=C(NCCc1ccccn1)c1cc(-c2cccs2)on1 [Compound 232]	++ (++ indicates activity ≧25% run at 10 uM of VX-809 at 1 uM)
CN1CCN(CCNC(=O)c2cc(-c3ccccc3)on2)CC1 [Compound 92]	++ (++ indicates activity ≧25% run at 10 uM of VX-809 at 1 uM)
NS(=O)(=O)c1ccc(CCNC(=O)c2cc(-c3ccccc3)on2)cc1 [Compound 97]	++ (++ indicates activity ≧25% run at 10 uM of VX-809 at 1 uM)
Cc1nn2cc(CCNC(=O)c3cc(-c4ccccc4)on3)nc2s1 [Compound 114]	++ (++ indicates activity ≧25% run at 10 uM of VX-809 at 1 uM)
